Measured values: PubChem BioAssay AID1845212 (Molecular Pharmacology Branch, DTP, NCI, 2023)

Tested on: NCI-H719 tumor spheroids, viability
Test: Anticancer human tumor NCI-H719 cell line growth inhibition;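 further: spheroids exposed to compounds for seven days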;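 on viability, T/C: percent viability relative to DMSO vehicle control as 100%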
Details: spheroids with HUVEC and MSC; for IC50: curve of first compound; for viability, T/C: stronger effect = lower value; active means viability on the fitted dose curve at most 10% of control; inactive means the rest
Excerpt: Multicellular complex tumor spheroid response to DNA repair inhibitors in combination with DNA-damaging drugs
This study explores the anticancer activities of DNA-damaging drugs and inhibitors of DNA damage repair, both as single agents and in combinations. Complex tumor spheroids comprised of malignant cells, endothelial cells and mesenchymal stem cells served as an in vitro model for human solid tumors. This model system incorporates physiologically relevant features and patient-derived or established malignant cell lines with clinically relevant genetic alterations from many tumor types. Twenty-six patient-derived or established malignant cell lines were evaluated representing sarcoma, melanoma, small cell lung cancer (SCLC), non-small cell lung cancer (NSCLC), as well as bladder, ovarian and pancreatic cancers. The concentration ranges selected for each drug and investigational agent were based upon clinically achievable concentrations if the clinical Cmax of the agent was known.
Compounds. The drugs and compounds olaparib (NSC753686), talazoparib (NSC767125), berzosertib (NSC777718), elimusertib (NSC800525), nedisertib (NSC802822), VX-984 (NSC792969), AZD-1390 (NSC803789), temozolomide (NSC362856), topotecan (NSC609699), trabectedin (NSC813783), staurosporine (NSC755774), and gemcitabine (NSC613327) were obtained from the National Cancer Institute (NCI) Developmental Therapeutics Program Chemical Repository. The FDA-approved anticancer drug set is available from the Developmental Therapeutics Program at https://dtp.cancer.gov/organization/dscb/obtaining/available_plates.htm. […] The stock solutions were prepared in dimethyl sulfoxide (DMSO, Sigma-Aldrich, St. Louis, MO, cat. D2650) at 400-fold the tested concentration and stored at -70 degrees C. Prior to their use, the stock solutions were diluted in fresh medium and the final DMSO concentration in the assay was 0.25% (v/v). All drugs and investigational agents were tested over a range starting from a high concentration at or near the clinical Cmax and decreasing in half-log increments. If the clinical Cmax for an agent had not been determined, the highest concentration tested was 10 microM.
Cell Lines. The patient-derived cancer cell (PDC) lines: 156681-154-R-J1-PDC, 283228-195-R-J1-PDC, 287954-098-R-J1-PDC, 292921-168-R-J2-PDC, 349418-098-R-PDC, 425362-245-T-J1-PDC, 556581-035-R-J1-PDC, and BL0293-F563-PDC were received from the NCI Patient-Derived Models Repository (PDMR, https://pdmr.cancer.gov). The established cell lines HS-SY-2 (RRID:CVCL_8719), MPNST, and SYO-1 (RRID:CVCL_7146) were obtained from the Sloan Kettering Institute. The alveolar soft parts sarcoma cell line ASPS-1 (RRID:CVCL_S738) was established at the NCI and grown from internal seed stocks. The following established cell lines were purchased from the American Type Culture Collection (ATCC, Manassas, VA): G-401 (ATCC, cat. CRL-1441, RRID:CVCL_0270), SW982 (ATCC, cat. HTB-93, RRID:CVCL_1734), VA-ES-BJ (ATCC, cat. CRL-2138, RRID:CVCL_1785), NCI-H719 (ATCC, cat. CRL-5837, RRID:CVCL_1582), NCI-H196 (ATCC, cat. CRL-5823, RRID:CVCL_1509), NCI-H841 (ATCC, cat. CRL-5845, RRID:CVCL_1595), NCI-H1618 (ATCC, cat. CRL-5879, RRID:CVCL_1480), NCI-H1876 (ATCC, cat. CRL-5902, RRID:CVCL_1503), DMS 114 (ATCC, cat. CRL-2066; RRID:CVCL_1174), NCI-H211 (ATCC, cat. CRL-5824; RRID:CVCL_1529), and SW 1271 (ATCC, cat. CRL-2177, RRID:CVCL_1716). The small cell lung cancer cell line COR-L88 was purchased from Sigma-Aldrich (cat. 92031917-1VL, RRID:CVCL_1141). The non-small cell lung cancer cell lines NCI-H226 (RRID:CVCL_1544) and NCI-H322M (RRID:CVCL_1557) were established at the NCI and grown from internal seed stocks. Pooled donor human umbilical vein endothelial cells (HUVEC, Lonza, cat. CC-2519) and human mesenchymal stem cells (hMSC, Lonza, cat. PT-2501) were purchased from Lonza (Walkersville, MD).
Cell Culture. All cells were maintained in an incubator at 37 degrees C and 5% CO2 with 95% humidity. […]

Cc1cc(C)c(CNC(=O)c2cc(-c3ccc(CN4CCOCC4)cc3)cc3c2cnn3C2CCCC2)c(=O)[nH]1 + CC[C@@]1(O)C(=O)OCc2c1cc1n(c2=O)Cc2cc3c(CN(C)C)c(O)ccc3nc2-1
active: viability, T/C (second compound 0.00949 µM, first compound 0.0316 µM) 6.76% | viability, T/C (second compound 0.00949 µM, first compound 0.1 µM) 6.82% | viability, T/C (second compound 0.00949 µM, first compound 0.316 µM) 6.88% | viability, T/C (second compound 0.00949 µM, first compound 1 µM) 6.69% | viability, T/C (second compound 0.00949 µM, first compound 3.16 µM) 6.81% | viability, T/C (second compound 0.00949 µM, first compound 10 µM) 5.13% | viability, T/C (second compound 0.03 µM, first compound 0.0316 µM) 6.03% | viability, T/C (second compound 0.03 µM, first compound 0.1 µM) 5.75% | viability, T/C (second compound 0.03 µM, first compound 0.316 µM) 6.33% | viability, T/C (second compound 0.03 µM, first compound 1 µM) 5.99% | viability, T/C (second compound 0.03 µM, first compound 3.16 µM) 6.45% | viability, T/C (second compound 0.03 µM, first compound 10 µM) 16.3% | viability, T/C (second compound 0.0949 µM, first compound 0.0316 µM) 5.7% | viability, T/C (second compound 0.0949 µM, first compound 0.1 µM) 5.83% | viability, T/C (second compound 0.0949 µM, first compound 0.316 µM) 5.84% | viability, T/C (second compound 0.0949 µM, first compound 1 µM) 6.02% | viability, T/C (second compound 0.0949 µM, first compound 3.16 µM) 6.69% | viability, T/C (second compound 0.0949 µM, first compound 10 µM) 6.41% | viability, T/C (second compound 0.3 µM, first compound 0.0316 µM) 5.68% | viability, T/C (second compound 0.3 µM, first compound 0.1 µM) 6.37% | viability, T/C (second compound 0.3 µM, first compound 0.316 µM) 6.67% | viability, T/C (second compound 0.3 µM, first compound 1 µM) 6.18% | viability, T/C (second compound 0.3 µM, first compound 3.16 µM) 6.37% | viability, T/C (second compound 0.3 µM, first compound 10 µM) 6.13%
inactive: viability, T/C (second compound 0.003 µM, first compound 0.0316 µM) 52.6% | viability, T/C (second compound 0.003 µM, first compound 0.1 µM) 52.9% | viability, T/C (second compound 0.003 µM, first compound 0.316 µM) 54.8% | viability, T/C (second compound 0.003 µM, first compound 1 µM) 51.6% | viability, T/C (second compound 0.003 µM, first compound 3.16 µM) 49.1% | viability, T/C (second compound 0.003 µM, first compound 10 µM) 39.2%
2260 nM: IC50 (second compound 0.003 µM)
< 31.6 nM: IC50 (second compound 0.00949 µM) | IC50 (second compound 0.03 µM) | IC50 (second compound 0.0949 µM) | IC50 (second compound 0.3 µM)

Cc1sc2c(c1C)C(c1ccc(Cl)cc1)=NC(CC(=O)Nc1ccc(O)cc1)c1nnc(C)n1-2 (stereo not given) + CC[C@@]1(O)C(=O)OCc2c1cc1n(c2=O)Cc2cc3c(CN(C)C)c(O)ccc3nc2-1
inactive: viability, T/C (second compound 0.003 µM, first compound 0.00949 µM) 42.6% | viability, T/C (second compound 0.003 µM, first compound 0.03 µM) 31.5% | viability, T/C (second compound 0.003 µM, first compound 0.0949 µM) 9.86%
< 9.49 nM: IC50 (second compound 0.003 µM) | IC50 (second compound 0.00949 µM) | IC50 (second compound 0.03 µM) | IC50 (second compound 0.0949 µM) | IC50 (second compound 0.3 µM)
active: viability, T/C (second compound 0.003 µM, first compound 0.3 µM) 4.37% | viability, T/C (second compound 0.003 µM, first compound 0.949 µM) 2.57% | viability, T/C (second compound 0.003 µM, first compound 3 µM) 1.57% | viability, T/C (second compound 0.00949 µM, first compound 0.00949 µM) 5.64% | viability, T/C (second compound 0.00949 µM, first compound 0.03 µM) 5.14% | viability, T/C (second compound 0.00949 µM, first compound 0.0949 µM) 5% | viability, T/C (second compound 0.00949 µM, first compound 0.3 µM) 4.27% | viability, T/C (second compound 0.00949 µM, first compound 0.949 µM) 2.51% | viability, T/C (second compound 0.00949 µM, first compound 3 µM) 2.02% | viability, T/C (second compound 0.03 µM, first compound 0.00949 µM) 4.76% | viability, T/C (second compound 0.03 µM, first compound 0.03 µM) 4.99% | viability, T/C (second compound 0.03 µM, first compound 0.0949 µM) 4.72% | viability, T/C (second compound 0.03 µM, first compound 0.3 µM) 3.7% | viability, T/C (second compound 0.03 µM, first compound 0.949 µM) 2.76% | viability, T/C (second compound 0.03 µM, first compound 3 µM) 1.87% | viability, T/C (second compound 0.0949 µM, first compound 0.00949 µM) 4.97% | viability, T/C (second compound 0.0949 µM, first compound 0.03 µM) 4.42% | viability, T/C (second compound 0.0949 µM, first compound 0.0949 µM) 4.02% | viability, T/C (second compound 0.0949 µM, first compound 0.3 µM) 3.47% | viability, T/C (second compound 0.0949 µM, first compound 0.949 µM) 2.28% | viability, T/C (second compound 0.0949 µM, first compound 3 µM) 1.46% | viability, T/C (second compound 0.3 µM, first compound 0.00949 µM) 5.22% | viability, T/C (second compound 0.3 µM, first compound 0.03 µM) 4.7% | viability, T/C (second compound 0.3 µM, first compound 0.0949 µM) 3.68% | viability, T/C (second compound 0.3 µM, first compound 0.3 µM) 2.55% | viability, T/C (second compound 0.3 µM, first compound 0.949 µM) 1.67% | viability, T/C (second compound 0.3 µM, first compound 3 µM) 0.66%
